Data reported in patent US20260285850A1, “SUBSTITUTED OXAZOLIDINONES AND IMIDAZOLINONES AS HERBICIDES” (FMC CORPORATION, priority 2023, published 2026).

How the values were obtained:
Type in all cases: in vivo
[1] = tested on: palmer (palmer amaranth, palmer pigweed, Amaranthus palmeri); experiment: Test A preemergence soil spray, visual injury rating 0-100; conditions: 10 days, 0 = no effect, 100 = complete control
How it was run: (§1)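 Visual injury, scored 0-100 (100 = complete control) against untreated plants, 10 days after greenhouse treatment. Test chemicals in surfactant-containing non-phytotoxic solvent were applied in loam soil and sand, as a preemergence soil spray on seeds or postemergence to plants at the one- to two-leaf stage.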

[2] = tested on: oat, wild (wild oat, Avena fatua); experiment: as above; conditions: 10 days, 0 = no effect, 100 = complete control
How it was run: as §1

[3] = tested on: green foxtail (Setaria viridis); experiment: as above; conditions: 10 days, 0 = no effect, 100 = complete control
How it was run: as §1

[4] = tested on: wheat (Triticum aestivum); experiment: as above; conditions: 10 days, 0 = no effect, 100 = complete control
How it was run: as §1

[5] = tested on: ragweed (common ragweed, Ambrosia artemisiifolia); experiment: as above; conditions: 10 days, 0 = no effect, 100 = complete control
How it was run: as §1

kochia (Bassia scoparia) [6] = experiment: as above; conditions: 10 days, 0 = no effect, 100 = complete control
How it was run: as §1

[7] = tested on: ryegrass, Italian (italian ryegrass, Lolium multiflorum); experiment: as above; conditions: 10 days, 0 = no effect, 100 = complete control
How it was run: as §1

[8] = tested on: barnyardgrass (Echinochloa crus-galli); experiment: as above; conditions: 10 days, 0 = no effect, 100 = complete control
How it was run: as §1

soybean (Glycine max) [9] = experiment: as above; conditions: 10 days, 0 = no effect, 100 = complete control
How it was run: as §1

corn (Zea mays) [10] = experiment: as above; conditions: 10 days, 0 = no effect, 100 = complete control
How it was run: as §1

[11] = tested on: blackgrass (Alopecurus myosuroides); experiment: as above; conditions: 10 days, 0 = no effect, 100 = complete control
How it was run: as §1

rice (Oryza sativa) = experiment: Test B flooded paddy test, visual plant response rating 0-100; conditions: 250 g ai/ha, Flood, applied to paddy water, evaluated after 13 days
How it was run: (§2)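 Each species was raised to two leaves before flooding to a 3 cm depth and dosing the water with compound. Injury was assessed by eye after 13 days under greenhouse conditions.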

[12] = tested on: sedge, umbrella (small-flower umbrella sedge, Cyperus difformis); experiment: as above; conditions: 250 g ai/ha, Flood, applied to paddy water, evaluated after 13 days
How it was run: as §2

[13] = tested on: ducksalad (Heteranthera limosa); experiment: as above; conditions: 250 g ai/ha, Flood, applied to paddy water, evaluated after 13 days
How it was run: as §2

[14] = tested on: barnyardgrass (Echinochloa crusgalli); experiment: as above; conditions: 250 g ai/ha, Flood, applied to paddy water, evaluated after 13 days
How it was run: as §2

[15] = tested on: palmer (palmer amaranth, palmer pigweed, Amaranthus palmeri); experiment: Test A postemergence application, visual injury rating 0-100; conditions: Postemergence, 10 days, 0 is no effect, 100 is complete control
How it was run: as §1

[16] = tested on: oat, wild (wild oat, Avena fatua); experiment: as above; conditions: Postemergence, 10 days, 0 is no effect, 100 is complete control
How it was run: as §1

[17] = tested on: green foxtail (Setaria viridis); experiment: as above; conditions: Postemergence, 10 days, 0 is no effect, 100 is complete control
How it was run: as §1

[18] = tested on: wheat (Triticum aestivum); experiment: as above; conditions: Postemergence, 10 days, 0 is no effect, 100 is complete control
How it was run: as §1

[19] = tested on: ragweed (common ragweed, Ambrosia artemisiifolia); experiment: as above; conditions: Postemergence, 10 days, 0 is no effect, 100 is complete control
How it was run: as §1

kochia (Bassia scoparia) [20] = experiment: as above; conditions: Postemergence, 10 days, 0 is no effect, 100 is complete control
How it was run: as §1

[21] = tested on: ryegrass, Italian (italian ryegrass, Lolium multiflorum); experiment: as above; conditions: Postemergence, 10 days, 0 is no effect, 100 is complete control
How it was run: as §1

[22] = tested on: barnyardgrass (Echinochloa crus-galli); experiment: as above; conditions: Postemergence, 10 days, 0 is no effect, 100 is complete control
How it was run: as §1

soybean (Glycine max) [23] = experiment: as above; conditions: Postemergence, 10 days, 0 is no effect, 100 is complete control
How it was run: as §1

corn (Zea mays) [24] = experiment: as above; conditions: Postemergence, 10 days, 0 is no effect, 100 is complete control
How it was run: as §1

[25] = tested on: horseweed (Erigeron canadensis); experiment: as above; conditions: Postemergence, 10 days, 0 is no effect, 100 is complete control
How it was run: as §1

[26] = tested on: blackgrass (Alopecurus myosuroides); experiment: as above; conditions: Postemergence, 10 days, 0 is no effect, 100 is complete control
How it was run: as §1

[27] = tested on: galium (catchweed bedstraw, Galium aparine); experiment: as above; conditions: Postemergence, 10 days, 0 is no effect, 100 is complete control
How it was run: as §1

CCOC(=O)C1C=CC(NC(=O)C2(C)CN(c3cc(Cl)cc(Cl)c3)C(=O)O2)C1 (stereo not shown) [Compound 44]
Amaranth, Palmer plant response rating (0 to 100 scale) ([1]; 125 g ai/ha): 100
Amaranth, Palmer plant response rating (0 to 100 scale) ([1]; 500 g ai/ha): 100
Oat, Wild plant response rating (0 to 100 scale) ([2]; 125 g ai/ha): 80
Oat, Wild plant response rating (0 to 100 scale) ([2]; 500 g ai/ha): 90
Foxtail, Green plant response rating (0 to 100 scale) ([3]; 125 g ai/ha): 90
Foxtail, Green plant response rating (0 to 100 scale) ([3]; 500 g ai/ha): 100
Wheat plant response rating (0 to 100 scale) ([4]; 125 g ai/ha): 90
Wheat plant response rating (0 to 100 scale) ([4]; 500 g ai/ha): 90
Ragweed plant response rating (0 to 100 scale) ([5]; 125 g ai/ha): 10
Ragweed plant response rating (0 to 100 scale) ([5]; 500 g ai/ha): 60
Kochia plant response rating (0 to 100 scale) (kochia (Bassia scoparia) [6]; 125 g ai/ha): 100
Kochia plant response rating (0 to 100 scale) (kochia (Bassia scoparia) [6]; 500 g ai/ha): 100
Ryegrass, Italian plant response rating (0 to 100 scale) ([7]; 125 g ai/ha): 90
Ryegrass, Italian plant response rating (0 to 100 scale) ([7]; 500 g ai/ha): 100
Barnyardgrass plant response rating (0 to 100 scale) ([8]; 125 g ai/ha): 100
Barnyardgrass plant response rating (0 to 100 scale) ([8]; 500 g ai/ha): 100
Soybean plant response rating (0 to 100 scale) (soybean (Glycine max) [9]; 125 g ai/ha): 20
Soybean plant response rating (0 to 100 scale) (soybean (Glycine max) [9]; 500 g ai/ha): 70
Corn plant response rating (0 to 100 scale) (corn (Zea mays) [10]; 125 g ai/ha): 70
Corn plant response rating (0 to 100 scale) (corn (Zea mays) [10]; 500 g ai/ha): 90
Blackgrass plant response rating (0 to 100 scale) ([11]; 125 g ai/ha): 90
Blackgrass plant response rating (0 to 100 scale) ([11]; 500 g ai/ha): 100
Plant response rating, Rice (0 to 100 scale, 0 is no effect and 100 is complete control) (rice (Oryza sativa)): 15
Plant response rating, Sedge, Umbrella (0 to 100 scale, 0 is no effect and 100 is complete control) [12]: 95
Plant response rating, Ducksalad (0 to 100 scale, 0 is no effect and 100 is complete control) [13]: 90
Plant response rating, Barnyardgrass (0 to 100 scale, 0 is no effect and 100 is complete control) [14]: 80
Amaranth, Palmer / Pigweed, Palmer plant response rating (0 to 100 scale) ([15]; 125 g ai/ha): 100
Amaranth, Palmer / Pigweed, Palmer plant response rating (0 to 100 scale) ([15]; 500 g ai/ha): 100
Oat, Wild plant response rating (0 to 100 scale) ([16]; 125 g ai/ha): 90
Oat, Wild plant response rating (0 to 100 scale) ([16]; 500 g ai/ha): 90
Foxtail, Green plant response rating (0 to 100 scale) ([17]; 125 g ai/ha): 90
Foxtail, Green plant response rating (0 to 100 scale) ([17]; 500 g ai/ha): 90
Wheat plant response rating (0 to 100 scale) ([18]; 125 g ai/ha): 90
Wheat plant response rating (0 to 100 scale) ([18]; 500 g ai/ha): 90
Ragweed plant response rating (0 to 100 scale) ([19]; 125 g ai/ha): 70
Ragweed plant response rating (0 to 100 scale) ([19]; 500 g ai/ha): 80
Kochia plant response rating (0 to 100 scale) (kochia (Bassia scoparia) [20]; 125 g ai/ha): 80
Kochia plant response rating (0 to 100 scale) (kochia (Bassia scoparia) [20]; 500 g ai/ha): 80
Ryegrass, Italian plant response rating (0 to 100 scale) ([21]; 125 g ai/ha): 90
Ryegrass, Italian plant response rating (0 to 100 scale) ([21]; 500 g ai/ha): 80
Barnyardgrass plant response rating (0 to 100 scale) ([22]; 125 g ai/ha): 100
Barnyardgrass plant response rating (0 to 100 scale) ([22]; 500 g ai/ha): 100
Soybean plant response rating (0 to 100 scale) (soybean (Glycine max) [23]; 125 g ai/ha): 90
Soybean plant response rating (0 to 100 scale) (soybean (Glycine max) [23]; 500 g ai/ha): 80
Corn plant response rating (0 to 100 scale) (corn (Zea mays) [24]; 125 g ai/ha): 100
Corn plant response rating (0 to 100 scale) (corn (Zea mays) [24]; 500 g ai/ha): 100
Horseweed plant response rating (0 to 100 scale) ([25]; 125 g ai/ha): 90
Horseweed plant response rating (0 to 100 scale) ([25]; 500 g ai/ha): 90
Blackgrass plant response rating (0 to 100 scale) ([26]; 125 g ai/ha): 100
Blackgrass plant response rating (0 to 100 scale) ([26]; 500 g ai/ha): 100
Galium plant response rating (0 to 100 scale) ([27]; 125 g ai/ha): 70
Galium plant response rating (0 to 100 scale) ([27]; 500 g ai/ha): 70
